What was measured:
Assay in all cases: Functional assay on peptide microarray (CTO/AF555 profile)
S. mutans UAB147 = assay type: cell-based, Streptococcus mutans; settings: SM; CTO and AF555 labeled cells
Excerpt: (§1) In order to make our technology more informative, we have developed a procedure for distinguishing those classes of peptides directly on the microarray (see FIG. 1c). Using the intracellular stain CTO we detected the first class (peptide-binders) and the third class (no activity). We decided to involve additional reference dye “Alexa Fluor-555” with an NHS ester active group that attack free amines present in membrane-bound proteins. It was expected, and subsequently shown, that peptide-binders should have signals dominated by both dyes on parallel arrays (profile CTO+AF+). In the case of peptides with killing activity, CTO should leak out of cells once the membrane is disrupted (profile CTO−AF+).
(§2) Before probing, the slides were treated with 90% TFA (trifluor-acetic acid) to get rid of non-immobilized peptides, blocking groups and probable organic impurities followed by DMF, ethanol and deionized water washing. […]
(§3) Turbidity of overnight cultures was measured at OD600. The CFU/ml value was calculated according to McFarland turbidity standard. […]
(§4) Microarrays were scanned by using a Perkin-Elmer ProScanArray HT Microarray Scanner with the 488, 543 and 633 nm excitation lasers at 100% power and 70% photomultiplier tube gain. […] All scanned images were analyzed by using GenePix Pro 6.0 software (Axon Instruments, Union City, Calif., USA). […]

P. aeruginosa PAO-1 = assay type: cell-based, Pseudomonas aeruginosa; settings: PA; CTO and AF555 labeled cells
Excerpt: as §1, §2, §3, §4

S. aureus UAB637 = assay type: cell-based, Staphylococcus aureus; settings: SA; CTO and AF555 labeled cells
Excerpt: as §1, §2, §3, §4

B. subtilis = assay type: cell-based, Bacillus subtilis; settings: BS; CTO and AF555 labeled cells
Excerpt: as §1, §2, §3, §4

E. coli O111:B4 = assay type: cell-based, Escherichia coli O111:B4; settings: EC; CTO and AF555 labeled cells
Excerpt: as §1, §2, §3, §4

Sequence | microarray profile (lytic / binder / no profile) (S. mutans UAB147) | microarray profile (lytic / binder / no profile) (P. aeruginosa PAO-1) | microarray profile (lytic / binder / no profile) (S. aureus UAB637) | microarray profile (lytic / binder / no profile) (B. subtilis) | microarray profile (lytic / binder / no profile) (E. coli O111:B4)
DRIFHKMQHKPYKIKKRGSC | lytic | lytic | binder | no profile | binder
RWRRHKHFKRPHRKHKRGSC | lytic | lytic | lytic | lytic | no profile

Source: patent US9482666B2, “High throughput selection of specific cell binding and lytic polypeptides” (priority 2011, dated 2016)
